Results as given in US20170340698A1, “CYCLIC PEPTIDE SPECIFICALLY BINDING TO APOPTOTIC CELLS AND USE THEREOF” (KYUNGPOOK NATIONAL UNIVERSITY INDUSTRY-ACADEMIC COOPERATION …, priority 2014, published 2017).
Residues, ends and D or L forms follow the SMILES beside them.

What was measured:
[1] = system: SNU-16 stomach tumor xenografts; experiment: Anti-tumor treatment of mice: tumor volume, tumor weight, TUNEL staining; assay type: in vivo; details: cisplatin 5 mg/kg i.p. once per week, cetuximab 1.5 mg/kg i.p. twice per week, two weeks; measured over three weeks
Method: Eight-week old female athymic (nu/nu) Balb/c mice were purchased from Orient laboratories (Seongnam, Korea) and were housed under specific-pathogen-free (SPF) conditions with laboratory chow and water ad libitum. Stomach tumor xenografts were established by subcutaneously injecting 1×10^7 SNU-16 cells in 100 ml saline into the right flank. Tumors were allowed to reach 50-60 mm^3 of volume before randomization and initiation of treatment. […] In the present experiment, a total of two rounds of anticancer drug treatment were conducted for two weeks. Changes in tumor size were measured using an automatic caliper over three weeks. Tumor volumes were calculated using the formula: volume=(length×width×height)/2. Tumor weights were measured after isolation of tumor mass.
To examine anti-tumor growth effect by cisplatin or cetuximab alone and in combination, tumor volumes and weights after the drug treatment were measured.

[2] = Stability of peptides in the serum (C18 reverse phase FPLC, MS); assay type: in vitro ADME, mice; details: mouse serum
Source text: Peptide stability in the serum was examined by the same method referring to the following documents Yoo S A, Bae D G, Ryoo J W, Kim H R, Park G S, et al. (2005) Arginine-rich antivascular endothelial growth factor (anti-VEGF) hexapeptide inhibits collageninduced arthritis and VEGF-stimulated productions of TNF-alpha and IL-6 by human monocytes. J Immunol 174: 5846-5855. Blood from mice was collected, and then serum was collected by centrifugation at 4[…], followed by filtration through 0.22 um-pore filter. […] The flow rate was 0.3 ml/min, and analyzed by C18 reverse phase FPLC using a linear gradient of 20% from 0 to 100% using acetonitrile through a linear graduation of 20% (Vydac protein and peptide C18, 0.1% trifluoroacetate in water for equilibration, and 0.1% trifluoroacetate in acetonitrile for elution) (Life Technologies, Carlsbad, Calif.). […]
It was examined whether higher levels of imaging signals by the cyclic form of ApoPep-1 compared with those of the linear form of ApoPep-1 was due to the difference in serum stability of peptides. After incubation of the linear or cyclic form of ApoPep-1 with mouse serum up to 24 hours, the amount of the peptide remaining in the serum was analyzed. […]

| Structure (SMILES) | tumor volume compared with control group treated without drug [1] | amount of peptide remaining in the serum (peak area) ([2]; 37 degrees, up to 24 hours) | presence of peptide in serum by MS after incubation ([2]; incubation for 24 hours, MS of FPLC peak) |
| --- | --- | --- | --- |
| N.N.[Cl][Pt][Cl] [cisplatin] | reduced tumor volumes |  |  |
| N=C(N)NCCC[C@H](NC(=O)[C@@H]1CCCN1C(=O)[C@@H]1CCCN1C(=O)[C@H](CCCNC(=N)N)NC(=O)[C@H](CCC(N)=O)NC(=O)[C@@H](N)CS)C(=O)O [linear form of ApoPep-1, CQRPPR, reference compound] (H-CQRPPR-OH; N-terminus and C-terminus assumed) |  | not significantly changed | stably present |
